The values below come from patent EP0416746A2 (priority 1989, dated 1991).

In test [1] the test system is Phytophthora infestans. The test is classed as in vivo. Particulars: active = greater than 50% control of the disease at 125 ppm (w/v) or less; spray or stem base drench; late tomato blight.
In test [2] the test system is Plasmopara viticola. The test is classed as in vivo.
The test system of test [3] is Erysiphe graminis. The test is classed as in vivo. Particulars: active = greater than 50% control of the disease at 125 ppm (w/v) or less; spray or stem base drench; barley powdery mildew.
Test [4] deals with Pyricularia oryzae. The test is classed as in vivo. Particulars: active = greater than 50% control of the disease at 125 ppm (w/v) or less; spray or stem base drench; rice blast.
The subject of test [5] is Pellicularia sasakii. It is filed as in vivo.
Test [6] concerns Botrytis cinerea. It is filed as in vivo. Particulars: active = greater than 50% control of the disease at 125 ppm (w/v) or less; spray or stem base drench; grey mould of tomato.
Test [7] has as its system Venturia inaequalis. Particulars: in vivo.

SMILES strings stand for the structures. Like-named read-outs stand apart in the source and are kept apart here.

Regarding `CO/C=C(/C(=O)OC)c1ccccc1CSC(=O)C(C)(C)C` [Compound 2], the PI result in test [1] was “+ (+ = active)”. In addition, the PV result in test [2] (active = greater than 50% control of the disease at 125 ppm (w/v) or less, spray or stem base drench, vine downy mildew) is given as “+ (+ = active)”. Further, the EG entry in test [3] is on record as “+ (+ = active)”. In addition, the PO result in test [4] is “+ (+ = active)”. In addition, the PS entry in test [5] (active = greater than 50% control of the disease at 125 ppm (w/v) or less, spray or stem base drench, rice sheath blight) is reported as “+ (+ = active)”. In test [6], the BC entry was “+ (+ = active)”.

Consider `CO/N=C(/C(=O)OC)c1ccccc1CSC(=O)c1ccccc1` [Compound 12, methyl (E)-2-[2-(benzoylthiomethyl)phenyl]-(methoxyimino)acetate], for which the PV entry in test [2] (in vivo) is listed as “+ (key: + = active)”. Further, the VI entry in test [7] is on record as “+ (key: + = active)”.

Turning to `CO/C=C(/C(=O)OC)c1ccccc1CSC(C)=O` [Compound 3, methyl (E)-2-[2-(acetylthiomethyl)phenyl]-3-methoxy-2-propenoate], in test [5] (in vivo), the PS result is recorded as “+ (key: + = active)”. Further, the VI result in test [7] is given as “+ (key: + = active)”.

As to `CO/C=C(/C(=O)OC)c1ccccc1CSC(=O)c1ccccc1` [Compound 1, methyl (E)-2-[2-(benzoylthiomethyl)phenyl]-3-methoxy-2-propenoate], the PI result in test [1] is reported as “+ (+ = active)”. Besides, the PV entry in test [2] (in vivo) is listed as “+ (key: + = active)”. Also, the VI result in test [7] is recorded as “+ (key: + = active)”.
